What was measured:
Assay type in all cases: cell-based, Mycobacterium tuberculosis
MmpL3 G596R = system: MmpL3 G596R
MmpL3 F255L = system: MmpL3 F255L
MmpL3 V681 = system: MmpL3 V681

| Compound | MmpL3 G596R MIC (MmpL3 G596R) [µM] | MmpL3 F255L MIC (MmpL3 F255L) [µM] | MmpL3 V681 MIC (MmpL3 V681) [µM] |
| --- | --- | --- | --- |
| CC(=O)Nc1cc(C)nn1-c1nc(-c2ccccc2)cc(=O)[nH]1 [Compound 15, N-(3-Methyl-1-(4-oxo-6-phenyl-1,4-dihydropyrimidin-2-yl)-1H-pyrazol-5-yl)acetamide] | >200 | >200 | >200 |
| Cc1cc(Nc2ccc(F)cc2)n(-c2nc(C(F)(F)F)cc(=O)[nH]2)n1 [Compound 40, 2-(5-((4-Fluorophenyl)amino)-3-methyl-1H-pyrazol-1-yl)-6-(trifluoromethyl)pyrimidin-4(3H)-one] | – | >200 | – |

From article PMC7816196, “Antitubercular 2-Pyrazolylpyrimidinones: Structure–Activity Relationship and Mode-of-Action Studies” (Journal of Medicinal Chemistry, 2021)
